Experiments:
[1] = biological target: T1, hSERT I172F (Homo sapiens, UniProt P31645, I172F); test: APP^+ uptake, hSERT I172F; type: cell-based; settings: S1 site mutant, read-out: SYR IC50 for Transport
T1 construct: forward and reverse primers were used to amplify a full-length hSERT; expressed in transfected cells; host or cells: HeLa
Method: HeLa cells were cultured in Dulbecco’s Modified Eagle’s Medium supplemented with 10% fetal bovine serum, 100 units/mL penicillin, and 100 μg/mL streptomycin at 37 °C in a humidified 5% CO2 incubator. Cells grown at ~70% confluence in a 6 cm culture dish were transfected with hSERT cDNA in pcDNA3.1 by lipofectamine 2000. Transfected cells were incubated for 12 h at 37 °C with 5% CO2 and then transferred into 96-well plates. After being grown for an additional 12–16 h, the cells were then assayed for APP^+ uptake or ASP^+ binding.
Measurement of transport or ligand binding activity of SERT was performed by using its fluorescent substrate (APP^+) or ligand (ASP^+), respectively. The cells transiently expressing WT or mutants of hSERT were applied for various treatments. Briefly, the cells were washed twice with 100 μL KRH buffer containing 20 mM HEPES (Neofroxx, Einhausen, Germany), pH 7.4, 120 mM NaCl, 1.3 mM KCl, 2.2 mM CaCl2, 1.2 mM MgSO4, and 0.1% (w/v) glucose. APP^+ uptake was measured by adding 100 μL KRH buffer containing 2 μM APP^+ and incubating for 5 min at 22 °C. Excess APP^+ was then removed by 3× rapid washing with 100 μL KRH buffer each time. The extent of APP^+ accumulated in the cells was determined by fluorescence spectrometry with an Infinite 200 Pro microplate reader (Tecan, Männedorf, Switzerland). […]

[2] = biological target: T2, hSERT E493N (Homo sapiens, UniProt P31645, E493N); test: ASP^+ binding, hSERT E493N; settings: S2 site mutant, read-out: SYR IC50 for Binding
T2 construct: forward and reverse primers were used to amplify a full-length hSERT; expressed in transfected cells; host or cells: HeLa cells, transient, pcDNA3.1

[3] = tested on: CUMS mice; test: Tail suspension test (TST) in CUMS mice; type: in vivo, mouse
Method: C57BL/6 adult (6–8 weeks, body weight, 18–22 g) male mice were maintained and handled in a standard condition at the Experimental Animal Center of Southern Medical University (Guangzhou, China). Animal use was approved by the Animal Use and Care Committee of Southern Medical University (approved code: SMUL2021177, approved date: 12 December 2021). The CUMS procedure was carried out according to a protocol described previously. Except for those in the control group, mice were randomly exposed to two mild unpredictable stressors per day for 3 weeks. The stressors included water deprivation, restraint, tilted cage, wet/no bedding, rotation, peppermint, noise, and inverted light off/on. Mice in the control group were group housed without any stressors throughout the procedure. […] NSFT was performed after 16 h food deprivation, as described previously. The mouse was placed in an open field (24 × 40 × 14 cm), where a new chow was put in the center, and the latency time to bite food was counted over 10 min. Home cage feeding within a 20 min period was measured after the test. FST was carried out according to a protocol described previously. The mouse was placed into a beaker (Bomex, Beijing, China) with a height of 18 cm filled with water (22 ± 1 °C) for 6 min. The immobile time was measured during minutes 2–6. TST was performed according to a previous description. The mouse was suspended from a hook that hung from a suspension bar by placing a piece of adhesive tape on its tail about 1 cm away from the tip. The immobile time during minutes 2–6 was measured.

[4] = biological target: T3, hSERT T583A (Homo sapiens, UniProt P31645, T583A); test: ASP^+ binding, hSERT T583A; settings: S2 site mutant, read-out: SYR IC50 for Binding
T3 construct: forward and reverse primers were used to amplify a full-length hSERT; expressed in transfected cells; host or cells: HeLa

[5] = biological target: T4, hSERT R564A (Homo sapiens, UniProt P31645, R564A); test: APP^+ uptake, hSERT R564A; type: cell-based; settings: S2 site mutant, read-out: SYR IC50 for Transport
T4 construct: forward and reverse primers were used to amplify a full-length hSERT; expressed in transfected cells; host or cells: HeLa

[6] = tested on: BDNF, PSD-95, GluA1, and vGluT1; test: Immunoblot of synaptic proteins in hippocampus of CUMS mice; type: in vivo, mouse; settings: same dosage as fluoxetine (10 mg/kg i.p.)
Description: Figure 8 SYR effects on the expression of c-Fos and synaptic proteins in the hippocampus. (A) Representative immunohistochemical images of c-Fos expression in the hippocampus with the indicated treatments. (B) Quantitative analysis for hippocampal c-Fos expression with various treatments. Protein expression level is expressed as a percentage of c-Fos fluorescence measured in the control group. Bars represent the mean ± SEM (n = 4). ** p < 0.01 compared with the control or CUMS group by one-way ANOVA followed by post hoc tests. (C) Representative immunoblots of the synaptic proteins BDNF, PSD-95, GluA1, and vGluT1 with various treatments. (D–G) Quantification of the expression of synaptic proteins BDNF (D), PSD-95 (E), GluA1 (F), and vGluT1 (G). The expression level is expressed as a percentage of the integrated density obtained from the control group. Bars represent the mean ± SEM (n = 4). * p < 0.05, ** p < 0.01 by one-way ANOVA followed by post hoc tests.
Synaptic proteins were extracted from mPFC or hippocampus tissues using RIPA lysis buffer, respectively. Expression of the indicated proteins under various treatments was then analyzed by immunoblotting, as previously reported. […] Quantification of immunoreactive protein bands was performed using Image J v1.53u, and GAPDH was used as an internal reference to normalize expression levels of those proteins, respectively.

[7] = biological target: T4, hSERT R564A; test: ASP^+ binding, hSERT R564A; settings: S2 site mutant, read-out: SYR IC50 for Binding

T4 sequence (P31645 whole entry R564A): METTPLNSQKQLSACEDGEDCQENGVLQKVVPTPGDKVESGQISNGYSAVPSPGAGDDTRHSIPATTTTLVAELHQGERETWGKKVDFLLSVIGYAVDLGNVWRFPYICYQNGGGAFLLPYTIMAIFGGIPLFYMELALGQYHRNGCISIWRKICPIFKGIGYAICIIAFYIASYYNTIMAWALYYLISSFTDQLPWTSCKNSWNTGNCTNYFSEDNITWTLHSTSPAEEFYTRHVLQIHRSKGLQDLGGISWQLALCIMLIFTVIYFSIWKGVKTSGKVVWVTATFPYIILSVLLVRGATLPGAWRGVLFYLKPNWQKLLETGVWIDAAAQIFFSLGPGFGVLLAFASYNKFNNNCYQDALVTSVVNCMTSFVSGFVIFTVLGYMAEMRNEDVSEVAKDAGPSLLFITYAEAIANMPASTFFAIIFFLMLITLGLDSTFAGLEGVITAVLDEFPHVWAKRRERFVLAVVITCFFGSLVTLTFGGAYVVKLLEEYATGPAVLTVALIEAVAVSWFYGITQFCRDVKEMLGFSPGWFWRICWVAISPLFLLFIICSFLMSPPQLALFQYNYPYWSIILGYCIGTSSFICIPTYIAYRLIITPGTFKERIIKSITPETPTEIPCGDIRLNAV
T2 sequence (P31645 whole entry E493N): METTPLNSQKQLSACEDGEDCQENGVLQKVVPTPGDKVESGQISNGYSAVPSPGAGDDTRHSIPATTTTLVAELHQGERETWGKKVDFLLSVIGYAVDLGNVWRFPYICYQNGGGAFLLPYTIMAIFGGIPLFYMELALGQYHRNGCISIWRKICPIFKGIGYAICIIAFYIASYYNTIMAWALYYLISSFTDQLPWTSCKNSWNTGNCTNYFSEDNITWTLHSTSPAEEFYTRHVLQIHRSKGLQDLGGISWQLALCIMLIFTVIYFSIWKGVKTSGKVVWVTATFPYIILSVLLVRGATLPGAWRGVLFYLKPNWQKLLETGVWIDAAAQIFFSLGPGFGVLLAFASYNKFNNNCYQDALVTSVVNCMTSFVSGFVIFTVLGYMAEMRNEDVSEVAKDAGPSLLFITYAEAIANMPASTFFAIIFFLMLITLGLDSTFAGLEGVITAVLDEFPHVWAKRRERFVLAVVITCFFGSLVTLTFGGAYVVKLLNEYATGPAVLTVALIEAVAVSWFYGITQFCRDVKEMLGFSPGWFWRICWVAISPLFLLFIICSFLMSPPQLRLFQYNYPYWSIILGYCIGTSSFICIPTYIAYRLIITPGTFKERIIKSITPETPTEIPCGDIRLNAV
T1 sequence (P31645 whole entry I172F): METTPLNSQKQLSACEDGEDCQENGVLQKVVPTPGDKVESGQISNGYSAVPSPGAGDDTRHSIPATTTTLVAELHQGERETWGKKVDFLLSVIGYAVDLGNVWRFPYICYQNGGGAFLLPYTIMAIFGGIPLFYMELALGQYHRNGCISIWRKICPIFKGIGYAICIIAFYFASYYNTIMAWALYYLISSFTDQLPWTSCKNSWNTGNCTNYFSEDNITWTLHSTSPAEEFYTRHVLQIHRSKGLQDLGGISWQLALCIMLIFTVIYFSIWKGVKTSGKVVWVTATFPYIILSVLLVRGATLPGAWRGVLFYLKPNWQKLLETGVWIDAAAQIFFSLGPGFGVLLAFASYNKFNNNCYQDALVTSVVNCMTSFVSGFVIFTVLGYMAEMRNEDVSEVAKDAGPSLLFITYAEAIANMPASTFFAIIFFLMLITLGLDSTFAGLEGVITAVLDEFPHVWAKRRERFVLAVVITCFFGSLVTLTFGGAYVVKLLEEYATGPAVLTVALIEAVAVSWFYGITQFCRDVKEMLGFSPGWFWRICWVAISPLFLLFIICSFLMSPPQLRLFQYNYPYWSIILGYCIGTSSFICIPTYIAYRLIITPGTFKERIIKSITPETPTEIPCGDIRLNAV
T3 sequence (P31645 whole entry T583A): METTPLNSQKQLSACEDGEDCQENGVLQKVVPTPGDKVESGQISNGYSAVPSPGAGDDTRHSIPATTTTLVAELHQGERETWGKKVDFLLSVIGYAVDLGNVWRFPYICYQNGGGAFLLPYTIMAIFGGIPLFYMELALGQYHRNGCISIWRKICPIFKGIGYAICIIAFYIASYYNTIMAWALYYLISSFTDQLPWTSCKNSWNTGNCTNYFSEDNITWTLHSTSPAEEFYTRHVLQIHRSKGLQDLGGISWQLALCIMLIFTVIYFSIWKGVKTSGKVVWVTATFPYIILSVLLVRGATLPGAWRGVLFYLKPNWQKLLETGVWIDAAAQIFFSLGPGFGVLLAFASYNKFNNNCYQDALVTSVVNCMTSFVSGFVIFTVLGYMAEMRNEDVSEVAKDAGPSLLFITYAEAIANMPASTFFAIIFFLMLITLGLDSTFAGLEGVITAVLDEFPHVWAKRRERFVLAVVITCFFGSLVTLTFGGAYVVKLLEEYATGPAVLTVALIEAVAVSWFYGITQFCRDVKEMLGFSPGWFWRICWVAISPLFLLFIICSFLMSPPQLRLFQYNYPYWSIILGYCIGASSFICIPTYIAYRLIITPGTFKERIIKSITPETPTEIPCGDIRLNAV

Which results are given for `COc1cc([C@@H]2OC[C@@H]3[C@H]2CO[C@H]3c2cc(OC)c(O)c(OC)c2)cc(OC)c1O` [SYR, (-)-syringaresinol]?
IC50 [1]: 2.22 ± 0.04 µM; IC50 [2]: 13.5 ± 1.3 µM; CUMS-induced increase in immobility time in TST ([3]; 5 mg/kg, i.p., once per day day 7 to 21): effectively attenuate; effect in TST ([3]; 10 or 20 mg/kg (i.p.)): remarkable antidepressant-like effects; IC50 [4]: 30.9 ± 0.93 µM; IC50 [5]: 14.6 ± 1.59 µM; CUMS-induced decrease in expression of synaptic proteins in the hippocampus [6]: effectively alleviate; IC50 [7]: 30.4 ± 1.42 µM
